Measurements reported in patent US20200054587A1, “METHODS AND MATERIALS FOR REDUCING SCARRING ASSOCIATED WITH ARTHROFIBROSIS OR TENDON INJURY” (Mayo Foundation for Medical Education and Research, priority 2018, published 2020).
Like-named read-outs stand apart in the source and are kept apart here.

Tests used:
[1] = cited from earlier work
knee arthrofibrosis = assay: Rabbit knee arthrofibrosis model, passive range of motion; assay type: in vivo; details: 50 mg in gel injected into the joint capsule during surgery
Method: (§1) All rabbits underwent luxation (hyperextension) and arthrodesis (fixation) of the operative knee. […] After eight weeks, the arthrodesis was reversed. Rabbits were allowed to roam free in individual spaces (1 m^2) for the entire 24 week duration. Angles of passive extension of operative and contralateral, non-operative limbs were measured at 8, 10, 16, and 24 weeks, using a validated dynamic load cell device. Rabbits were sacrificed at 24 weeks and samples of the posterior capsule were taking from the operative and contralateral, non-operative knee. Data from mRNA extraction and qPCR were obtained to analyze expression of alpha-1 collagen (COL1A1, COL2A1 and COL5A1) and alpha smooth muscle actin (ACTA2), all of which are involved in fibrosis.

[2] = system: COL1A1, COL2A1 and COL5A1; assay: qPCR of collagen genes in posterior capsule tissue, rabbit knee arthrofibrosis model; assay type: in vivo; details: rabbit posterior capsule tissue at 24 weeks, FIG. 3A
Method: as §1

ACTA2 = assay: qPCR of alpha smooth muscle actin gene in posterior capsule tissue, rabbit knee arthrofibrosis model; assay type: in vivo; details: rabbit posterior capsule tissue at 24 weeks, FIG. 3B
Method: as §1

flexor tendon injury = assay: In vivo turkey flexor tendon injury model; details: 50 mg powder applied to repaired tendon, 6 weeks
From the text: Flexor tendon injuries are common and pose a clinical challenge for functional restoration. Postoperative repair rupture and scar formation results in prolonged work disability for patients. […] Twelve male turkeys underwent surgical flexor tendon cut and repair. […] After sacrifice, digits were collected and analyzed for adhesion formation as well as healing at the macrolevel.

[3] = system: adipose tissue-derived mesenchymal stem cells (aMSC); assay: Live/dead cytotoxicity staining (Calcein AM / Ethidium Homdimer-1); details: after initial exposure, absence of any dead-cell staining, FIG. 1B

Compound	solubility ([1]; acetone)	solubility ([1]; alcohol)	solubility ([1]; chloroform)	solubility ([1]; ether)	solubility ([1]; glycerin)	solubility ([1]; water)	passive range of motion (ROM), pentamidine vs control rabbits (knee arthrofibrosis; 24 weeks, p=0.0082)	passive range of motion (ROM), pentamidine vs control rabbits (knee arthrofibrosis; eight weeks, p=0.0303)	collagen (COL1A1, COL2A1 and COL5A1) expression vs control tissue [2]	ACTA2 gene expression vs control tissue (ACTA2)	post-operative scar formation (gross anatomy) vs control (flexor tendon injury)	adhesion score, 0 (no adhesion) to 8 (very severe) (flexor tendon injury; all six treated turkeys, FIG. 4)	cytotoxic effect (Ethidium Homdimer-1 staining) [3]
N=C(N)c1ccc(OCCCCCOc2ccc(C(=N)N)cc2)cc1 [Pentamidine isethionate, 4,4-[1,5-pentanediylbis(oxy)]bis-benzenecarboximidamid]	insoluble	soluble	insoluble	insoluble	soluble	soluble	–	–	–	–	–	–	–
N=C(N)c1ccc(OCCCCCOc2ccc(C(=N)N)cc2)cc1 [pentamidine, 4,4′-[pentane-1,5-diylbis(oxy)]dibenzenecarboximid-amide]	–	–	–	–	–	–	statistically significant difference	statistically significant difference	decreased	decreased	marked reduction	significantly reduced	no cytotoxic effect
